Here are results for seven molecules from ChEMBL document CHEMBL1139612 (Bioorg Med Chem Lett, 2005).

For experiment [1], the target named is Serotonin 1a (5-HT1a) receptor/Adrenergic receptor alpha-1 (Rattus norvegicus) (UniProt P15823+P23944+P43140+P19327). As to the kind of experiment: Ratio of alpha-1 adrenergic receptor to that of 5-hydroxytryptamine 1A receptor. Format: protein assay.
The target in experiment [2] is T1, 5-hydroxytryptamine receptor 1A (Rattus norvegicus, UniProt P19327).
T1 sequence (P19327 whole entry): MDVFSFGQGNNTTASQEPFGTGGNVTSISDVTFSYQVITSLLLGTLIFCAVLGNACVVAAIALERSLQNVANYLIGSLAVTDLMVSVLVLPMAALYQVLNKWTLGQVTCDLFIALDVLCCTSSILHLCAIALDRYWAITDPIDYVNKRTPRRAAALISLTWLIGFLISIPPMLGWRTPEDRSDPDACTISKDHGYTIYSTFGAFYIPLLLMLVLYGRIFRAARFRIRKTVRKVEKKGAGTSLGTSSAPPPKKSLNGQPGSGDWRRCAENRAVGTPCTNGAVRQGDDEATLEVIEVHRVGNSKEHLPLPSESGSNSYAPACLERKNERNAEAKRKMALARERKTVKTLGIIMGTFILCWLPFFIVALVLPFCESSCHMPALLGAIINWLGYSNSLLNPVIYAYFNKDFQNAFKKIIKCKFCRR
As to the kind of experiment: Inhibitory concentration against 5-hydroxytryptamine 1A receptor in rat hippocampus membrane using [3H]-8-OH-DPAT as radioligand. Format: cell membranes.

The species entered for experiment [3] is Rattus norvegicus. As to the kind of experiment: Ratio of dopamine receptor D2 to that of 5-hydroxytryptamine 1A receptor.
The target of experiment [4] is T2, Adrenergic receptor alpha-1 (Rattus norvegicus, UniProt P15823+P23944+P43140).
T2 sequence (P15823 whole entry): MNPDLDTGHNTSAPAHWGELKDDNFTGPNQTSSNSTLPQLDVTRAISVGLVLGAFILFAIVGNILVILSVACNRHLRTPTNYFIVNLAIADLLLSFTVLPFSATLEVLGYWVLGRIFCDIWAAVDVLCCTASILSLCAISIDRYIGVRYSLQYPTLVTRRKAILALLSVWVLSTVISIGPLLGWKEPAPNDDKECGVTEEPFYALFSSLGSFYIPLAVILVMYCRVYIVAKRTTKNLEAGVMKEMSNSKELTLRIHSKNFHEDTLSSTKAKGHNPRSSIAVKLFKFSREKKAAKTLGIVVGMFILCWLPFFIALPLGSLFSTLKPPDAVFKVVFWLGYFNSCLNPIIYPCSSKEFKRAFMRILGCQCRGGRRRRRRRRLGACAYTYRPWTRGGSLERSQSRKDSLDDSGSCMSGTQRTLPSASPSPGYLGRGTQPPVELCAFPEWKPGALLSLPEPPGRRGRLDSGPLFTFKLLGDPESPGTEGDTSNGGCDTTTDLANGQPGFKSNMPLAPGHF
T2 sequence (P23944 whole entry): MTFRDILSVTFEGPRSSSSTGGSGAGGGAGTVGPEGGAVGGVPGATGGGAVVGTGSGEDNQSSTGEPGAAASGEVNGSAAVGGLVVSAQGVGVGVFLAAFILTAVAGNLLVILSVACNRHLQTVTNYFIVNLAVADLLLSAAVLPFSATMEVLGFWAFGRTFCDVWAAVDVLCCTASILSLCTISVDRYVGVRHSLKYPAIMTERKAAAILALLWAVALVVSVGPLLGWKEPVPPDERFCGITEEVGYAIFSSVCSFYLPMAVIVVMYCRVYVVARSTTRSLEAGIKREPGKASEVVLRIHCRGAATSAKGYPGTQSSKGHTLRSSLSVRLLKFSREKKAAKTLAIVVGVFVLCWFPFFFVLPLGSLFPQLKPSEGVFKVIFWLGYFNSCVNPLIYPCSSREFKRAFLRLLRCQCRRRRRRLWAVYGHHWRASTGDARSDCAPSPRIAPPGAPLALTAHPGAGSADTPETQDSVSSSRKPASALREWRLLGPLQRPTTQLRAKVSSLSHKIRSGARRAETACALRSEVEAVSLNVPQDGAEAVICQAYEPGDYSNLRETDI
T2 sequence (P43140 whole entry): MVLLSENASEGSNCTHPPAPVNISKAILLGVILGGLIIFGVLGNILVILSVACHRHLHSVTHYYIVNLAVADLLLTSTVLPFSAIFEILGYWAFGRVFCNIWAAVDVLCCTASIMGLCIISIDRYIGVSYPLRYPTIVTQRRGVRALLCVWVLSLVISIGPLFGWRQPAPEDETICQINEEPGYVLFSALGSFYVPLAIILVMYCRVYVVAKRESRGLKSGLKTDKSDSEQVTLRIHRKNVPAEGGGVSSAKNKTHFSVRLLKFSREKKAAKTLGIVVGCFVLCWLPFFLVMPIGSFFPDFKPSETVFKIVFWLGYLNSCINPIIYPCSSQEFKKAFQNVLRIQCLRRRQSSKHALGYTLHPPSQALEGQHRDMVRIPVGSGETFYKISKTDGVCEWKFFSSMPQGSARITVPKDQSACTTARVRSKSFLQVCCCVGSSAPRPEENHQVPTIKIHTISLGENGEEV
As to the kind of experiment: Inhibitory concentration against Alpha-1 adrenergic receptor in rat cerebral cortex membrane using [3H]prazosin as radioligand. Format: cell membranes.

The target of experiment [5] is D(2) dopamine receptor (Rattus norvegicus, UniProt P61169). As to the kind of experiment: Inhibitory concentration against Dopamine receptor D2 in rat striatum membrane using [3H]raclopride as radioligand. Format: cell membranes.

As usually defined, the IC50 is the point on the concentration scale where inhibition reaches its midpoint. Low readings indicate greater potency, high ones weaker potency.

Structures are written as SMILES.

D(2) dopamine receptor, sequence (P61169 whole entry): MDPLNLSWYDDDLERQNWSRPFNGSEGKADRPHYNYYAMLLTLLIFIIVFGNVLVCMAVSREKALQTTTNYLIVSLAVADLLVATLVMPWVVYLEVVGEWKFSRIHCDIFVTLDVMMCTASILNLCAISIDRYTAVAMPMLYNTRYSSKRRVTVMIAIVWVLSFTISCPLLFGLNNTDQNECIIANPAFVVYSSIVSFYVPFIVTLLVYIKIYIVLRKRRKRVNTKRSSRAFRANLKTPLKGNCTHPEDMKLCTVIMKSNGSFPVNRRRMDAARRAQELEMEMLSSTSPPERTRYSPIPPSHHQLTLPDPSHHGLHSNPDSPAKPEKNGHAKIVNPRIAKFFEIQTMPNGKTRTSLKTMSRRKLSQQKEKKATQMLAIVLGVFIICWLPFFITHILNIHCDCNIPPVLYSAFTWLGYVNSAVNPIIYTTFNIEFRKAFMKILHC

In the case of `O=C(O)/C=C/C(=O)O.O=C1c2ccccc2OC=C(Cl)N1CCCCN1CCC=C(c2ncccn2)C1`, the Ratio in experiment [1] was found to be 4.8; in experiment [3], 11. For the same molecule, the IC50 in experiment [2] is 79.6 nM; in experiment [4] it was 384 nM; in experiment [5] it was 893 nM.
With `O=C1c2ccccc2OC=C(Cl)N1CCCCN1CCCC(c2ncccn2)C1` (stereo not given), the IC50 in experiment [2] was 314 nM.
For `Cl.O=C1c2ccccc2OC=C(Cl)N1CCCCN1CCC(O)(c2ncccn2)CC1`, in experiment [1], the Ratio turned out to be 3.6. Moreover, the IC50 in experiment [4] is reported as 9560 nM.
For the molecule `O=C1c2ccccc2OC=C(Cl)N1CCCCN1CCN(c2ncccn2)CC1`, the Ratio came to 342 in experiment [1] and 125 in experiment [3]. This molecule registered a half-maximal inhibitory concentration (IC50) in experiment [4] of 544 nM.
For the molecule `Cl.O=C1c2ccccc2OC=C(Cl)N1CCCCN1CC=C(c2ncccn2)CC1`, the Ratio was 670 in experiment [1] and 358 in experiment [3]. Further, the IC50 in experiment [4] is given as 924 nM.
For `Cl.O=C1c2ccccc2OC=C(Cl)N1CCCCN1CCC(c2ncccn2)CC1` the same measures were 344, 310 and 2000 nM.
Take `O=C1c2ccccc2OC=C(Cl)N1CCCCN1CCN(c2ccccn2)CC1`: the values for the Ratio in experiment [1] and in experiment [3] were 56 and 66, respectively. For the same molecule, in experiment [4], the IC50 was 43 nM.
